The target of experiment [1] is P-gp (Homo sapiens, UniProt P08183). As to the kind of experiment: biochemical.
For experiment [2], the target named is T1, human MATE1 (Homo sapiens, UniProt Q96FL8).
T1 sequence (Q96FL8 1-570): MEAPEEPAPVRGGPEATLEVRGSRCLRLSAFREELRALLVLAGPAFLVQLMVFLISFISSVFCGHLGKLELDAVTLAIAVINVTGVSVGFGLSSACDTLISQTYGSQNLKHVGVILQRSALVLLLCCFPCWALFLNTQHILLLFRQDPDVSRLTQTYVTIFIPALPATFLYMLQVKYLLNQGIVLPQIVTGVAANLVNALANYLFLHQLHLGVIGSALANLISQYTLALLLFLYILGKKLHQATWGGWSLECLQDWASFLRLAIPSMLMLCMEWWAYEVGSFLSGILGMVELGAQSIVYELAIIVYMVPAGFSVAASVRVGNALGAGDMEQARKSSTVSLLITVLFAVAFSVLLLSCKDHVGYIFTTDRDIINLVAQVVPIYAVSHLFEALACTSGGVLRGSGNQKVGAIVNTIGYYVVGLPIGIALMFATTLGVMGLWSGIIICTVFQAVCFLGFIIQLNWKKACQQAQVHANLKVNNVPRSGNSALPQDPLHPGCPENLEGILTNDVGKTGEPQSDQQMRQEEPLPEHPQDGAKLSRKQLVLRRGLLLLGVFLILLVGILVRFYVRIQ
As to the kind of experiment: cell-based.

For experiment [3], the target named is T2, human OATP2B1 (Homo sapiens, UniProt O94956).
T2 sequence (O94956 1-709): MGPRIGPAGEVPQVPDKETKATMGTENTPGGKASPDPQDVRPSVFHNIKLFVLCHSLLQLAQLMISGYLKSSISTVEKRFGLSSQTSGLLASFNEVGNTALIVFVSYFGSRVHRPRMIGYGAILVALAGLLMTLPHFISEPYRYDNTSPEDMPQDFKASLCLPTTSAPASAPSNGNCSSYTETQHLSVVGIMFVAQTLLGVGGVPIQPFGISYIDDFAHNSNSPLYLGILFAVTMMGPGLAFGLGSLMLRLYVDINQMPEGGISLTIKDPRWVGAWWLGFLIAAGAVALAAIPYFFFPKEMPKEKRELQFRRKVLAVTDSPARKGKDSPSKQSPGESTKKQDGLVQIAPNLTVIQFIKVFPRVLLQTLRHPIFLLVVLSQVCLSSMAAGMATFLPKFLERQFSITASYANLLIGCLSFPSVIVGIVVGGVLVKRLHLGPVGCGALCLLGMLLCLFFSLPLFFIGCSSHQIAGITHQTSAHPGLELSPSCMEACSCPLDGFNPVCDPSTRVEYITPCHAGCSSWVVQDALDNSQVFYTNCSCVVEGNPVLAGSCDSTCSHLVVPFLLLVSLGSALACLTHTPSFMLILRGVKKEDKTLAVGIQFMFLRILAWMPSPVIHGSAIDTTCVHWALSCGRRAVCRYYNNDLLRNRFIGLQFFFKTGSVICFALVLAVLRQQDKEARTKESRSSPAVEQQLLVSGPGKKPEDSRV
Nature of the experiment: cell-based. The settings on record: IC50 OATP2B1, experimental, mean ± SD; stable cells; substrate ES.

For experiment [4], the target named is T3, BCRP (Homo sapiens, UniProt Q9UNQ0).
T3 sequence (Q9UNQ0 1-655): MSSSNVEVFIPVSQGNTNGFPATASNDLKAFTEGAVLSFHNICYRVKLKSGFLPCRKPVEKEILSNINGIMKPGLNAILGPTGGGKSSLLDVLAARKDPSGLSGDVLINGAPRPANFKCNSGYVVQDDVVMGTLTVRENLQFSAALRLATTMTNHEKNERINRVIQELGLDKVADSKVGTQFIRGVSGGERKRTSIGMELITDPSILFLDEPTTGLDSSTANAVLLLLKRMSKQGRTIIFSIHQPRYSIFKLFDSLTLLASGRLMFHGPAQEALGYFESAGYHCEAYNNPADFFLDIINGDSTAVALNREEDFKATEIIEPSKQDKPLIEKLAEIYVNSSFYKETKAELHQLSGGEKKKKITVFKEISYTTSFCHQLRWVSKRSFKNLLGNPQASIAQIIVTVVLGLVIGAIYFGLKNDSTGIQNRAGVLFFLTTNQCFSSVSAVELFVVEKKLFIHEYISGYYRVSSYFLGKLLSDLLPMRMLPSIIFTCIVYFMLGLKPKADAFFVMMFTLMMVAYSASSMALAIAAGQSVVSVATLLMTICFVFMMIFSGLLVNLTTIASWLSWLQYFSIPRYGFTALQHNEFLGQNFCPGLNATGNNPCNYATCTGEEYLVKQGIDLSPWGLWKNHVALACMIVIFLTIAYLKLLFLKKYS
Nature of the experiment: biochemical.

In experiment [5] the target is T4, human OAT3 (Homo sapiens, UniProt Q8TCC7).
T4 sequence (Q8TCC7 1-542): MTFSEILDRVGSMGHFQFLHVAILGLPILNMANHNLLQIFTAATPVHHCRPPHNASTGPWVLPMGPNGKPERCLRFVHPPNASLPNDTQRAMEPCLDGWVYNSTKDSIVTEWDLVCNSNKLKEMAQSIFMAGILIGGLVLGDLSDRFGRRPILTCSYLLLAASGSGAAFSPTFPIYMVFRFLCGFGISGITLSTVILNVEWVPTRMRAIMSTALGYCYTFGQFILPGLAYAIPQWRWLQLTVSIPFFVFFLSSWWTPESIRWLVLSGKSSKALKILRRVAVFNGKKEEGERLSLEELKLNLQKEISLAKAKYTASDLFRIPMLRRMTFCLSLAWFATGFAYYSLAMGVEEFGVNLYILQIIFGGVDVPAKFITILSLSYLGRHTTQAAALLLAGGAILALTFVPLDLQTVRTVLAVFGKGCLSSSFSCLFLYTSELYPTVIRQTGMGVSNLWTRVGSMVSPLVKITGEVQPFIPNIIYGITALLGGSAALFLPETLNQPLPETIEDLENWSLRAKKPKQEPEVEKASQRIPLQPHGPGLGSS
Nature of the experiment: cell-based.

P-gp, sequence (P08183 whole entry): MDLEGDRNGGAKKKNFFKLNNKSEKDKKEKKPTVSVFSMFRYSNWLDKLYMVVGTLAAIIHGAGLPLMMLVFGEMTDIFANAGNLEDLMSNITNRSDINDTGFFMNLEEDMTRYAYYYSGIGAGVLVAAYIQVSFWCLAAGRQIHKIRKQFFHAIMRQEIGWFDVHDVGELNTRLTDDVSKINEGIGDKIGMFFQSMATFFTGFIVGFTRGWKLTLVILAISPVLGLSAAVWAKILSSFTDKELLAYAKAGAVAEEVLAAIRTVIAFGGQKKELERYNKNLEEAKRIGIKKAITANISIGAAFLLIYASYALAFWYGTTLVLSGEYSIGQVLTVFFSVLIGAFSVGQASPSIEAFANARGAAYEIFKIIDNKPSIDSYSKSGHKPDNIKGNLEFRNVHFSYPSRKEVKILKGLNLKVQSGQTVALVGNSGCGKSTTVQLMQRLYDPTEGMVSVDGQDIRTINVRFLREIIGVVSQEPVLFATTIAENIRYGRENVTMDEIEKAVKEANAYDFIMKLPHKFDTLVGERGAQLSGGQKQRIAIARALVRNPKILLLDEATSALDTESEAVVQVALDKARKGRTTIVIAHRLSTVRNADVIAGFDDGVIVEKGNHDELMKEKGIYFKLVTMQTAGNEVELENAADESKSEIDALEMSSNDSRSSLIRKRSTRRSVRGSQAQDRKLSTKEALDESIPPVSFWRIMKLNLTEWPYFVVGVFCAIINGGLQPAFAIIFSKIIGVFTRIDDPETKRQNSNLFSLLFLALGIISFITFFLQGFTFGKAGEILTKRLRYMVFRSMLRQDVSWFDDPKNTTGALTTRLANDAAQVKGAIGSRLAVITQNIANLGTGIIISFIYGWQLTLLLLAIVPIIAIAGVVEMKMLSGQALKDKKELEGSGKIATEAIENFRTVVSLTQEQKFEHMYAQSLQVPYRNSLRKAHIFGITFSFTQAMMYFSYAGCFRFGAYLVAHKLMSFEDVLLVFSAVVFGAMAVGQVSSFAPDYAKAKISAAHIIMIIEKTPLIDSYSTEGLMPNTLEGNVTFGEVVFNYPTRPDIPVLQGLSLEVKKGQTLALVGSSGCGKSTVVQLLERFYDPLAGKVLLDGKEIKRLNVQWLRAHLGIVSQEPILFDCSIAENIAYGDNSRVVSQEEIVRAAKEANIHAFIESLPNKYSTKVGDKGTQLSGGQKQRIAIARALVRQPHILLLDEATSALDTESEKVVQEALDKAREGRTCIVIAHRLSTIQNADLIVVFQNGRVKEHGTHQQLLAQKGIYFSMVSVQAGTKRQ

On to `CC(C)CN(C[C@@H](O)[C@H](Cc1ccccc1)NC(=O)O[C@H]1CO[C@H]2OCC[C@H]21)S(=O)(=O)c1ccc(N)cc1` [Darunavir], for which the IC50 (commonly the midpoint of a concentration-inhibition curve) in experiment [1] is 16 µM; in experiment [2], 43.8 ± 14.4 µM; in experiment [3] it was 30.6 ± 7.7 µM; in experiment [4], above 100 µM; in experiment [5] it was 37.9 ± 9.5 µM.
For `N#CC[C@H](C1CCCC1)n1cc(-c2ncnc3[nH]ccc23)cn1` [Ruxolitinib], in that order: above 100 µM, 0.7 ± 0.01 µM, 17.4 ± 8.6 µM, above 100 µM and 6.1 ± 0.6 µM.
For `CCCc1nn(C)c2c(=O)[nH]c(-c3cc(S(=O)(=O)N4CCN(C)CC4)ccc3OCC)nc12` [Sildenafil], in that order: 16 µM, 2.4 ± 0.1 µM, 39 ± 12.8 µM, 3.1 ± 2.5 µM and 20.5 ± 3.1 µM.
Taken in the same sequence, the figures for `CCOC(=O)c1c(CSc2ccccc2)n(C)c2cc(Br)c(O)c(CN(C)C)c12` [Umifenovir (Arbidol), Umifenovir] were 16 ± 2 µM, 0.7 ± 0.2 µM, 3.5 ± 1.2 µM, above 100 µM and 58.6 ± 21.9 µM.
Consider `CCC(CC)COC(=O)[C@H](C)N[P@](=O)(OC[C@H]1O[C@@](C#N)(c2ccc3c(N)ncnn23)[C@H](O)[C@@H]1O)Oc1ccccc1` [Remdesivir], for which the 50% inhibitory concentration (IC50) in experiment [1] was 14 µM; in experiment [2], 0.4 ± 0.1 µM; in experiment [3], 3.5 ± 0.4 µM; in experiment [4] it was 25 ± 6 µM; in experiment [5] it was 14 ± 1.7 µM.

The record behind these values is article PMC8217266 (Clinical Pharmacology and Therapeutics, 2021).
